The values below are quoted from earlier work in patent US20060233841A1, “Implantable gel compositions and method of manufacture” (priority 1999, published 2006).

The conditions of this data set: reported value; solubility values considered to be determined at 20° C.

Regarding `CC(=O)OCC(COC(C)=O)OC(C)=O` [triacetin], the solubility in water is 7.17 grams in 100 ml of water.
